From US9642839B2, “Substance having tyrosine kinase inhibitory activity and preparation method and use thereof” (Institute of Radiation Medicine, China Academy of Military …, priority 2013, dated 2017)

Legend:
MKN-45 cells = assay: In vitro antitumor activity, MTS cell proliferation; assay type: cell-based; settings: MKN-45, gastric cancer, 72 hours
Method: (§1) Method: 14 cell lines (MKN-45 cells, MHCC97-L cells, MHCC97-H cells, HLE cells, HepG2 cells, 7721 cells, L02 cells, A375 cells, H460 cells, A549 cells, SK-N-SH cells, MCF-7 cells, K562 cells, and Ba/F3-Tpr-Met cells (pre-B cells which are malignantly transformed by the c-Met constitutive active mutant Tpr-Met) were seeded into 96-well plate at 1×10^4 cells/well, and each well was added with 150 μl DMEM medium (purchased from Invitrogen) containing 10% fetal bovine serum (purchased from Hyclone). When cell adherent was observed, different concentrations of 2-indolone derivatives (concentrations at 0.1-10 μM) were added, in addition to the negative control (vehicle control group) and blank control (medium group). After culture at 37° C., 5% CO2 for 72 hours, MTS reagent (Promega Corporation) were added for further culture for 2-4 h.

SK-N-SH cells = assay: as above; assay type: cell-based; settings: neuroblastoma, 72 hours
Method: as §1

MHCC97-L cells = assay: as above; assay type: cell-based; settings: hepatocellular cancer, 72 hours
Method: as §1

A375 cells = assay: as above; assay type: cell-based; settings: A375, skin cancer, 72 hours
Method: as §1

Ba/F3-Tpr-Met cells = assay: as above; assay type: cell-based; settings: pre-B cell, 72 hours
Method: as §1

H460 cells = assay: as above; assay type: cell-based; settings: H460, lung cancer, 72 hours
Method: as §1

MCF-7 cells = assay: as above; assay type: cell-based; settings: MCF-7, breast cancer, 72 hours
Method: as §1

K562 cells = assay: as above; assay type: cell-based; settings: K562, leukemia, 72 hours
Method: as §1

HepG2 cells = assay: as above; assay type: cell-based; settings: HepG2, hepatocellular cancer, 72 hours
Method: as §1

HLE cells = assay: as above; assay type: cell-based; settings: hepatocellular cancer, 72 hours
Method: as §1

[1] = tested on: protein tyrosine kinase (PTK); assay: PTK activity assay with mouse brain tissue extract (ELISA, OD 492 nm); assay type: biochemical; settings: at 400 μM
Method: Tyrosine kinase buffer: 10 mL 1M HEPES (pH 7.5), 0.4 mL 5% BSA/PBS, 0.2 mL 0.1M Na3VO4, and 1 mL 5M NaCl were added to 88.4 mL double distilled water (DDW) (HEPES: Amresco; Na3VO4: Sigma).
Extraction of tissue extract PTK: mouse brain tissue was quickly removed and weighed, followed by addition of five-fold volumes of pre-cooled homogenization buffer for homogenization. After centrifugation at 4° C., 1,000 g for 10 min, nuclei and cell debris were removed. The supernatant S1 was collected and centrifuged at 4° C., 10,000 g for 20 min, and then the supernatant S2 was collected. The precipitate P2, which represents the crude membrane protein fraction, was retained. S2 included cytoplasmic protein, and was used for testing protein tyrosine kinase (PTK) activity. In the detection of the membrane protein fraction, two-fold volumes of lysis buffer was added to P2, and the resultant was placed on ice for 10 min and centrifuged at 4° C., 10,000 g for 10 min. The supernatant S3, which represents the crude membrane protein including soluble membrane protein, was collected for testing PTK activity. Protein content in cytoplasm or membrane protein was detected by using BCA protein concentration kit (purchased from Beyotime Institute of Biotechnology). The tissue extract was stored at −70° C.
Coating of 96-well plate: PTK substrate was dissolved and added in an amount of 100 μl to each well. The plate was covered with its lid, and incubated at 4° C. overnight (10-12 hours). Then it was washed with 200 μl elution buffer once, and dried at 37° C. for 2 h. After that, it was washed with 10 mM PBS once, dried at room temperature, and then stored at 4° C. for further use.
Groups: blank control: 80 μl 1× tyrosine kinase buffer containing ATP+20 μl 1× tyrosine kinase buffer; negative control: 80 μl 1× tyrosine kinase buffer containing ATP+10 μl 1× tyrosine kinase buffer+7 μl tissue extract+3 μl 1× tyrosine kinase buffer; positive control: 80 μl 1× tyrosine kinase buffer containing ATP+10 μl Gefitinib+7 μl tissue extract+3 μl 1× tyrosine kinase buffer (first, the positive drug was allowed to interact with the tyrosine kinase tissue extract at room temperature for 10 min, and meanwhile the tissue extract for the negative control group was also placed at room temperature for 10 min, and then 80 μl 1× tyrosine kinase buffer containing ATP was added to respective groups); vehicle control: 80 μl 1× tyrosine kinase buffer containing ATP+10 μl DMSO+7 μl tissue extract+3 μl 1× tyrosine kinase buffer; drugs to be screened: 80 μl 1× tyrosine kinase buffer containing ATP+10 μl drug to be tested +7 μl tissue extract+3 μl 1× tyrosine kinase buffer.
PTK activity assay: 1× tyrosine kinase buffer was prepared by evenly mixing 1 mL (10×) tyrosine kinase buffer with 9 mL DDW. The tissue extract was diluted with 1× tyrosine kinase buffer appropriately, mixed with it gently and evenly, and placed on ice. ATP stock solution was dissolved by evenly mixing 48 μl ATP stock solution with 1 mL 1× tyrosine kinase buffer, and placed on ice. The microplate reader was added in respective wells with the groups formulated as above, covered with the lid, and incubated at room temperature for 30 min. The microplate reader was washed with 200 μl elution buffer and tapped until the residual buffer was removed, and this procedure was repeated for five times. To each well, 100 μl antibody diluent (antibody elution buffer diluted at a ratio of 1:2000) was added. The reader was covered with the lid, and incubated at room temperature for 30 min. OPD solution was prepared by addition of 4 mg OPD into a mixture of 4.86 mL 0.1 mol/L citric acid solution and 5.14 mL 0.2 mol/L Na2HPO4 solution, followed by addition of 50 μl 30% H2O2 to allow for complete dissolution, and then was protected from light. The antibody solution was removed. The reader was washed with 200 μl elution buffer and tapped until the residual buffer was removed, and this procedure was repeated for five times.

L02 cells = assay: MTS cell proliferation, normal liver cells; assay type: cell-based; settings: L02, normal hepatic cells, 72 hours
Method: […] After culture at 37° C., 5% CO2 for 72 hours, MTS reagent (Promega Corporation) were added for further culture for 2-4 h.

MHCC97-H cells = assay: In vitro antitumor activity, MTS cell proliferation; assay type: cell-based, human; settings: hepatocellular cancer, 72 hours
Method: as §1

A549 cells = assay: as above; assay type: cell-based, human; settings: A549, lung cancer, 72 hours
Method: as §1

[2] = tested on: non-small cell lung cancer (NSCLC); settings: 250 mg/day tablet, NSCLC patients with previous chemotherapy, 159 subjects; cited from earlier work

IC50 (MKN-45 cells)	IC50 (SK-N-SH cells)	IC50 (MHCC97-L cells)	IC50 (A375 cells)	IC50 (Ba/F3-Tpr-Met cells)	IC50 (H460 cells)	IC50 (MCF-7 cells)	IC50 (K562 cells)	IC50 (HepG2 cells)	IC50 (HLE cells)	Inhibition rate on tyrosine kinase [1]	IC50 (MHCC97-H cells)	IC50 (A549 cells)	Structure (SMILES)	IC50 (L02 cells)	Objective response rate [2]
940 nM	540 nM	640 nM	970 nM	2.54 µM	780 nM	1460 nM	1340 nM	3.69 µM	3.58 µM	60.7%	540 nM	2320 nM	O=C1Nc2ccc(S(=O)(=O)NC3CCCCC3)cc2C1=Cc1nc2ccccc2[nH]1 [Indo 4, 3-(1H-benzimidazol-2-methylene)-5-(cyclohexylaminosulfo)-2-indolone]	26.8 µM	
1970 nM	1350 nM	1540 nM	3180 nM	5.31 µM	1540 nM	1720 nM	3020 nM	6.47 µM	6.31 µM	51.2%	1380 nM	2890 nM	O=C1Nc2ccc(S(=O)(=O)Nc3ccc4ccccc4c3)cc2C1=Cc1nc2ccccc2[nH]1 [Indo 1, 3-(1H-benzimidazol-2-methylene)-5-(β-naphthylaminosulfo)-2-indolone]	24.8 µM	
1380 nM	1060 nM	1060 nM	1650 nM	4.21 µM	940 nM	1120 nM	2210 nM	5.18 µM	4.87 µM	55.0%	910 nM	1990 nM	O=C1Nc2ccc(S(=O)(=O)Nc3ccc(Cl)cc3)cc2C1=Cc1nc2ccccc2[nH]1 [Indo 6, 3-(1H-benzimidazol-2-methylene)-5-(4-chlorophenylaminosulfo)-2-indolone]	22.7 µM	
1720 nM	1220 nM	1310 nM	2120 nM	4.91 µM	1250 nM	1350 nM	2640 nM	5.98 µM	5.91 µM	51.3%	1170 nM	2520 nM	CCOc1ccc(NS(=O)(=O)c2ccc3c(c2)C(=Cc2nc4ccccc4[nH]2)C(=O)N3)cc1 [Indo 9, 3-(1H-benzimidazol-2-methylene)-5-(4-ethoxyphenylaminosulfo)-2-indolone]	23.2 µM	
2020 nM	1570 nM	1680 nM	2350 nM	5.68 µM	1630 nM	1810 nM	3110 nM	6.74 µM	6.58 µM	49.9%	1530 nM	3020 nM	Cc1ccc(NS(=O)(=O)c2ccc3c(c2)C(=Cc2nc4ccccc4[nH]2)C(=O)N3)cc1 [Indo 8, 3-(1H-benzimidazol-2-methylene)-5-(4-methylphenylaminosulfo)-2-indolone]	25.3 µM	
2130 nM	1790 nM	1870 nM	2480 nM	5.93 µM	1780 nM	1950 nM	3270 nM	6.98 µM	6.79 µM	45.2%	1670 nM	3160 nM	O=C1Nc2ccc(S(=O)(=O)Nc3ccc(F)c(Cl)c3)cc2C1=Cc1nc2ccccc2[nH]1 [Indo 2, 3-(1H-benzimidazol-2-methylene)-5-(3-chloro-4-fluorophenylaminosulfo)-2-indolone]	23.7 µM	
1130 nM	670 nM	970 nM	1220 nM	3.11 µM	920 nM	830 nM	1670 nM	4.25 µM	4.36 µM	58.2%	690 nM	1280 nM	O=C1Nc2ccc(S(=O)(=O)Nc3ccc(CCO)cc3)cc2C1=Cc1nc2ccccc2[nH]1 [Indo 7, 3-(1H-benzimidazol-2-methylene)-5-(4-hydroxyethylphenylaminosulfo)-2-indolone]	25.7 µM	
1290 nM	850 nM	1110 nM	1470 nM	3.87 µM	1050 nM	960 nM	2070 nM	4.79 µM	4.72 µM	55.9%	820 nM	1540 nM	CN(c1ccccc1)S(=O)(=O)c1ccc2c(c1)C(=Cc1nc3ccccc3[nH]1)C(=O)N2 [Indo 3, 3-(1H-benzimidazol-2-methylene)-5-(N-methylphenylaminosulfo)-2-indolone]	22.2 µM	
													COc1cc2ncnc(Nc3ccc(F)c(Cl)c3)c2cc1OCCCN1CCOCC1 [Gefitinib]		27.0%
